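Growth conditions: 96-well plates. Treatment: test compound, 48 hours, 5 concentrations. Analysis: linear interpolation between bracketing concentrations; unreached endpoints set to highest concentration. Here, GI50 denotes the concentration required for 50% inhibition of growth. TGI is the concentration that stops growth completely.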

Some test systems named below: SK-OV-3 ovarian; HS 578T breast; SF-539 CNS; CCRF-CEM leukemia; 786-0 renal; BT-549 breast; COLO 205 colon; EKVX NSCLC.
Holding throughout (assay): growth of human tumour cells (NCI), 48 h

Take `COC(=O)c1c2c(c(C)[n+]([O-])c1C)C(=O)C(NCc1ccccc1)=CC2=O`: the GI50 in the experiment on SK-OV-3 ovarian was 2.81 µM; in the experiment with HS 578T breast, 7 µM; in the experiment on SF-539 CNS, 2.29 µM; with CCRF-CEM leukemia, 2980 nM; in the experiment on 786-0 renal it was 3.68 µM; in the experiment on BT-549 breast, 4190 nM. The GI50 was 977 nM in the experiment with COLO 205 colon and 2.09 µM in the experiment with EKVX NSCLC. In addition, the TGI amounted to 9.63 µM in the experiment with SK-OV-3 ovarian; 82.4 µM with HS 578T breast; 5.3 µM with SF-539 CNS; 22.3 µM in the experiment with CCRF-CEM leukemia; 23.7 µM with 786-0 renal; 16 µM with BT-549 breast. The TGI in the experiment with COLO 205 colon was found to be 2.67 µM; in the experiment on EKVX NSCLC it was 5.41 µM.

`COc1ccc(Nc2ncc(I)c(NCCCNC(=O)C3CCC3)n2)cc1`: the GI50 in the experiment on SK-OV-3 ovarian is 4.81 µM; in the experiment with HS 578T breast, 2.94 µM; with SF-539 CNS, 3.47 µM; in the experiment on CCRF-CEM leukemia, 4960 nM; in the experiment with 786-0 renal it was 5.58 µM; in the experiment with BT-549 breast it was 2520 nM. Besides, the GI50 with COLO 205 colon is 3070 nM; with EKVX NSCLC, 6.48 µM. Moreover, the TGI in the experiment with SK-OV-3 ovarian was 25.5 µM; in the experiment on HS 578T breast, 13.2 µM; with SF-539 CNS, 18.4 µM; with CCRF-CEM leukemia, greater than 100 µM; in the experiment with 786-0 renal, 29.2 µM; in the experiment with BT-549 breast, 7.92 µM. In addition, the values for the TGI in the experiment with COLO 205 colon and with EKVX NSCLC were 12.2 µM and 76.6 µM, respectively.

Take `COc1ccc(Sc2[nH]c(C=O)c3ccccc23)cc1`: the GI50 was 4.99 µM in the experiment with SK-OV-3 ovarian; 6.44 µM in the experiment on HS 578T breast; 10.9 µM with SF-539 CNS; 5660 nM in the experiment on CCRF-CEM leukemia; 12 µM in the experiment on 786-0 renal; 2030 nM in the experiment with BT-549 breast. In addition, the values for the GI50 with COLO 205 colon and with EKVX NSCLC were 664 nM and 5.49 µM, respectively. In addition, the TGI came to 24.9 µM with SK-OV-3 ovarian; 33.6 µM with HS 578T breast; 23 µM in the experiment with SF-539 CNS; 22.3 µM in the experiment with CCRF-CEM leukemia; 26.1 µM with 786-0 renal; 12.1 µM in the experiment on BT-549 breast. The TGI in the experiment with COLO 205 colon was found to be 6 µM; with EKVX NSCLC it was 34.1 µM.

Turning to `CCCCCSc1ccc2nc(NC(=O)OCC)sc2c1`, the GI50 was 0.535 µM in the experiment on SK-OV-3 ovarian; 0.944 µM with HS 578T breast; 0.4 µM in the experiment on SF-539 CNS; 628 nM in the experiment on CCRF-CEM leukemia; 0.541 µM with 786-0 renal; 487 nM with BT-549 breast. For the same compound, the GI50 in the experiment on COLO 205 colon was 530 nM; in the experiment with EKVX NSCLC it was 0.557 µM. Moreover, the TGI with SK-OV-3 ovarian is greater than 100 µM; in the experiment with HS 578T breast it was greater than 100 µM; in the experiment on SF-539 CNS, 4.77 µM; in the experiment on CCRF-CEM leukemia, greater than 100 µM; in the experiment on 786-0 renal it was greater than 100 µM; with BT-549 breast, greater than 100 µM. For the same compound, the TGI in the experiment on COLO 205 colon and with EKVX NSCLC was greater than 100 µM each time.

Consider `COc1cc(OC)c(C(=O)/C=C/c2ccc(C#N)cc2)c(OC)c1`, for which the GI50 with SK-OV-3 ovarian was 2.05 µM; with HS 578T breast, 1.93 µM; with SF-539 CNS it was 1.28 µM; in the experiment with CCRF-CEM leukemia, 1370 nM; with 786-0 renal it was 1.86 µM; in the experiment on BT-549 breast, 1300 nM. Also, the GI50 in the experiment on COLO 205 colon was 1820 nM; in the experiment with EKVX NSCLC it was 2.07 µM. For the same compound, the TGI with SK-OV-3 ovarian is greater than 50 µM; with HS 578T breast, greater than 50 µM; in the experiment on SF-539 CNS, 3.85 µM; in the experiment with CCRF-CEM leukemia, 15 µM; in the experiment with 786-0 renal, 6.88 µM; in the experiment on BT-549 breast, 5.11 µM. Further, the TGI was 7.38 µM with COLO 205 colon and greater than 50 µM in the experiment on EKVX NSCLC.

In the case of `Cc1[nH]c2ccccc2c1CO`, the GI50 in the experiment with SK-OV-3 ovarian is 35.1 µM; in the experiment with HS 578T breast, 15.6 µM; in the experiment on SF-539 CNS, 18.8 µM; with CCRF-CEM leukemia, 32800 nM; in the experiment with 786-0 renal it was 24.5 µM; in the experiment on BT-549 breast it was 18400 nM. Also, the GI50 is 14200 nM with COLO 205 colon and 20.9 µM in the experiment on EKVX NSCLC. Further, the TGI in the experiment with SK-OV-3 ovarian was greater than 100 µM; in the experiment on HS 578T breast it was 44 µM; with SF-539 CNS it was 39.9 µM; in the experiment on CCRF-CEM leukemia, greater than 100 µM; in the experiment with 786-0 renal, 64.8 µM; in the experiment with BT-549 breast, 40.3 µM. Also, the TGI was found to be 27.3 µM in the experiment with COLO 205 colon and 70.7 µM in the experiment on EKVX NSCLC.

As for `COc1cc(-n2cc(-c3ccc(Cl)cc3)n(-c3ccccc3)c2=O)cc(OC)c1OC`, the GI50 with SK-OV-3 ovarian is 30.8 µM; with HS 578T breast, 25.6 µM; with SF-539 CNS, 27.1 µM; with CCRF-CEM leukemia, 2670 nM; in the experiment with 786-0 renal it was 30.7 µM; in the experiment with BT-549 breast it was 17500 nM. The GI50 is 11700 nM with COLO 205 colon and 18.5 µM in the experiment with EKVX NSCLC. Further, the TGI is greater than 90.7 µM in the experiment on SK-OV-3 ovarian; greater than 100 µM with HS 578T breast; greater than 100 µM in the experiment on SF-539 CNS; greater than 100 µM in the experiment with 786-0 renal; 57.3 µM in the experiment on BT-549 breast; 44.2 µM in the experiment with COLO 205 colon. The TGI in the experiment with EKVX NSCLC was greater than 100 µM.

Consider `NC(=O)c1cn(C2CC(O)C(CO)O2)c2ncnc(N)c12` (stereo not drawn), for which the GI50 is 1.68 µM in the experiment with SK-OV-3 ovarian; 2.27 µM with HS 578T breast; 3.34 µM in the experiment on SF-539 CNS; 88.8 nM in the experiment on CCRF-CEM leukemia; 4.15 µM in the experiment with 786-0 renal; 203 nM in the experiment with BT-549 breast. In addition, the figures for the GI50 in the experiment on COLO 205 colon and with EKVX NSCLC were 5010 nM and 1.92 µM, respectively. The TGI in the experiment on SK-OV-3 ovarian was 43 µM; with HS 578T breast, 17.3 µM; with SF-539 CNS, 15.1 µM; in the experiment on CCRF-CEM leukemia, greater than 100 µM; with 786-0 renal, 18.9 µM; with BT-549 breast, 2.87 µM. In addition, the TGI in the experiment with COLO 205 colon was 24 µM; in the experiment on EKVX NSCLC it was greater than 23.2 µM.

With `Cn1cnc([N+](=O)[O-])c1S(=O)(=O)Oc1ccc(Cl)cc1`, the GI50 with SK-OV-3 ovarian is 50.5 µM; with HS 578T breast, 19.6 µM; with SF-539 CNS it was 7.11 µM; with CCRF-CEM leukemia, 2330 nM; in the experiment on 786-0 renal, 17 µM; in the experiment on BT-549 breast, 13300 nM. For the same compound, the results for the GI50 in the experiment on COLO 205 colon and with EKVX NSCLC were 546 nM and 19.1 µM, respectively. Besides, the TGI in the experiment with SK-OV-3 ovarian is greater than 100 µM; in the experiment on HS 578T breast, 68.1 µM; in the experiment on SF-539 CNS, 21 µM; in the experiment on CCRF-CEM leukemia, 7.05 µM; with 786-0 renal, 33 µM; in the experiment with BT-549 breast, 28.8 µM. The TGI in the experiment with COLO 205 colon was 2.09 µM; with EKVX NSCLC, 49.6 µM.

Values taken from PubChem BioAssay (NCI).
